{"source": "patent US7498161B2", "about": "(priority 2003, dated 2009)", "key": {"C8161 cells": {"system": "C8161 cells", "type": "cell-based, human", "details": "50 μM CB1954 alone"}, "A2780 xenograft": {"system": "A2780 xenograft", "assay": "Scheduling experiment: virus with or without CB1954, tumour volume in A2780 xenografts", "type": "in vivo, athymic nude mice", "details": "CB1954 alone, no virus, 80 mg/kg intra-peritoneal", "description": "The inventors proceeded to investigate two doses of the virus in combination with CB1954. The doses selected were 10^5 PFU and 10^6 PFU. Both these doses caused some tumour growth delay in earlier experiments.\nThe prodrug is given as an 80 mg/kg intra-peritoneal injection, after dissolving the powdered form in 10% acetone and then making up the volume with peanut oil.\nMice were randomized into treatment groups (treatment regimes shown in Table 2) of 3 animals when tumour diameters were approximately 5 mm (tumour volume […]).\n(§1) The treatment groups were administered with a single direct intratumoural injection of the virus and dose determined for that group. The virus was diluted PBS+10% serum. ‘No virus’ control groups received an intratumoural injection of 100 μl of PBS+10% serum. This day was designated as Experimental Day 0.\n(§2) Injections of CB1954 were given to the appropriate groups at days 2, 10 and 15. A dose of 80 mg/kg—the equivalent of approx. 2 mg per mouse—was given. The powdered form of the CB1954 drug (from Sigma) was dissolved in acetone to 10% of the final volume (10 μl per 2 mg). The volume was then made up to 2 mg CB1954 in 100 μl using peanut oil. A syringe was used to mix the drug as peanut oil is thick and viscous. The drug was made up fresh every time.\nThe appropriate groups were then injected intra-peritoneal with this solution. […]"}, "[1]": {"assay": "Scheduling experiment: tolerability of the injections (weight, behaviour)", "type": "in vivo, athymic nude mice", "details": "80 mg/kg intra-peritoneal in 10% acetone/peanut oil", "description": "FIG. 26. Weight (as a measurement of health) in athymic nude mice with A2780 xenograft treated with either HSV 1790, HSV 1716, CB 1954 or a combination of them.\nas §1\nSome tumours bleed slightly after injection but not to a great degree. […] In all the tumours that bleed slightly, the following day the healing process had begun and within 3-5 days there was little evidence of any puncture wound on any tumour.\nas §2\nThe appropriate groups were then injected intra-peritoneal with this solution. Control groups which were not receiving drug were injected intra-peritoneal with a 100 μl solution of 10% acetone in peanut oil."}}}
{"smiles": "NC(=O)c1cc(N2CC2)c([N+](=O)[O-])cc1[N+](=O)[O-]", "note": "[CB1954, 5-aziridin-1-yl-2,4-dinitrobenzamide]", "values": [{"measurement": "effect on cells", "setting": "C8161 cells", "value": "no effect"}, {"measurement": "effect on tumour growth", "setting": "A2780 xenograft", "value": "little effect on tumour growth"}, {"measurement": "behaviour after injection", "setting": "[1]", "value": "slightly lethargic for a short period after the injection"}, {"measurement": "body weight", "setting": "[1]", "value": "did not lose any body weight"}, {"measurement": "swelling or irritation at site of injection", "setting": "[1]", "value": "No swelling or irritation at the site of injection"}]}
